Laboratory results: paper PMC8964423 (Frontiers in Chemistry, 2022)

Columns and labels:
HeLa cells [1] = assay: Flow cytometry apoptosis analysis (Annexin V-FITC) in HeLa cells; format: cell-based, human; details: 10 μM TRIP or 50 μM etoposide, 24 h
Description: HeLa cells were treated with each compound for the designated time and dose, or transfected with siRNAs using Lipofectamine RNAiMAX (Thermo; #15338100). The cells were trypsinized and re-suspended in PBS containing 2% FBS (Gibco; #16000-044). To measure mitochondrial reactive oxygen species (ROS) and polarization, we stained the same number of re-suspended cells with either 2.5 μM of mitoSOX (Invitrogen; M36008) or 500 nM of TMRE (tetramethylrhodamine ethyl ester) (Invitrogen; T669) at 37°C for 1 h. To measure apoptosis, we also stained the same number of re-suspended cells with Annexin V-FITC Apoptosis Staining and Detection Kit (Abcam; ab14085) according to the manufacturer’s protocol. The stained cells were subjected to flow cytometry analysis using FACSAria II (BD).

CHOP = assay: Immunoblotting of CHOP signaling pathways in HeLa cells; format: cell-based, human
Description: The concentration of the soluble protein fraction was measured by BCA protein assay kit (Thermo; #23225).

HeLa = assay: Cell viability assay (Ez-cytox; Table 1 says MTT), HeLa; format: cell-based, human; details: cervical cancer; treated 2 days; mean ± SD (n = 3)
Description: (§1) HeLa (ATCC; CCL-2) and CaSki (ATCC; CRL-1550) were cultured in Roswell Park Memorial Institute (RPMI) 1,640 Medium (Gibco; #11875-093) supplemented with heat-inactivated 10% fetal bovine serum (FBS) (Gibco; #16000-044), and 1% penicillin (100 units/mL)/streptomycin (100 μg/mL) solution (Gibco; #15240-062). A375P (ATCC; CRL-3224), HEK293T (ATCC; […] CRL-2541) were cultured in Dulbecco's Modified Eagle's Medium (DMEM) (Gibco; #11995-065) supplemented with heat-inactivated 10% FBS (Gibco; #16000-044), and 1% penicillin/streptomycin solution (Gibco; #15240-062). All types of cells were maintained in 100-mm cell culture dishes in a humidified atmosphere of a 5% CO2 incubator at 37°C. All cells were cultured every 2 days using trypsin (Gibco; #12605-010). […] BF-400-S). […] […]), carboplatin (Sigma; […] After changing the culture medium to 100 μL of fresh culture medium, 10 μL of Ez-cytox solution (Dogen; EZ-BULK150) was added to the 96-well plate. […] Synergy).

Caski = assay: Cell viability assay, CaSki; format: cell-based, human; details: cervical cancer; treated 2 days; mean ± SD (n = 3)
Description: as §1

A375P = assay: Cell viability assay, A375P; format: cell-based, human; details: skin melanoma; treated 2 days; mean ± SD (n = 3)
Description: as §1

HEK293T = assay: Cell viability assay, HEK293T; format: cell-based, human; details: embryonic kidney cells (non-cancer); treated 2 days; mean ± SD (n = 3)
Description: as §1

C8-D1A = assay: Cell viability assay, C8-D1A; format: cell-based, murine; details: normal astrocyte; treated 2 days; mean ± SD (n = 3)
Description: as §1

HeLa cells [2] = assay: Mitochondrial monitoring in live HeLa cells (mitochondrial fission); details: 10 μM TRIP, 50 μM Mdivi-1 pre-treated 1 h
HeLa cells [3] = assay: ICP-MS metal accumulation in DNA and proteins of HeLa cells; format: cell-based, human; details: 10 μM, 1, 2, 4 and 8 h
Description: After washing with 1× phospho-buffered saline (PBS, Welgene; ML008-02), HeLa cells harvested by trypsinization (Gibco; #12605-010) were used for either protein or DNA extraction. […] The concentration of the soluble protein fraction was measured by BCA (bicinchoninic acid) protein assay kit (Thermo; #23225). Cell lysates were digested in concentrated HNO3 at 160°C for 3 h and rested at room temperature overnight. The digested cell lysates were diluted in DW to make the final concentration of HNO3 less than 5%. […] The metal accumulations in proteins were expressed as ng Pt or Re/mg protein. In order to quantify metal accumulations in DNA, cells were re-suspended in 300 μL of lysis buffer [100 mM NaCl, 25 mM EDTA (Acros; #11843-5000), 0.5% SDS (w/v) (Acros; #230420100), 0.1 mg/ml proteinase K (Merck; #70663-4CN), and 10 mM Tris-HCl, pH 8.0] and incubated at 50°C overnight. A 300 μL of phenol:chloroform:isoamyl alcohol mixture (25:24:1, Sigma; #77617) was added to cell lysates and shaken vigorously. After centrifugation at 13,000 g for 5 min, upper layer containing DNA, out of two layers, was transferred to a new tube. […] DNA concentration was quantified by measuring the absorbance at 260 nm. […] Metal contents in DNA were quantified by ICP-MS as same method as measuring metal contents in protein. The metal accumulations in DNA were expressed as ng Pt or Re/mg DNA.

Row | Structure (SMILES) | IC50 (HeLa) [µM] | IC50 (Caski) [µM] | IC50 (A375P) [µM] | IC50 (HEK293T) [µM] | IC50 (C8-D1A) [µM] | other results
1 | COc1cc([C@@H]2c3cc4c(cc3[C@@H](O[C@@H]3O[C@@H]5CO[C@@H](C)O[C@H]5[C@H](O)[C@H]3O)[C@H]3COC(=O)[C@H]23)OCO4)cc(OC)c1O [Etoposide, etoposide] | – | – | – | – | – | mode of cell death (HeLa cells [1]): via apoptosis, not necrosis
2 | C/C=C(/C)C(=O)O[C@H]1C(C)=C2[C@H]([C@@H]1OC(=O)CCCCCCC)[C@@](C)(OC(C)=O)C[C@H](OC(=O)CCC)[C@@]1(O)[C@H]2OC(=O)[C@@]1(C)O [thapsigargin] | – | – | – | – | – | time to activation of p-eIF2α/ATF4 signaling pathway (CHOP; 200 nM thapsigargin): ≤ 1 h; time after which CHOP activation was observed (CHOP; 200 nM thapsigargin or 10 μM TRIP): 2 h
3 | N.N.O=C([O-])C1(C(=O)[O-])CCC1.[Pt+2] [Carboplatin, carboplatin] | 40.5 ± 2.62 | 22.73 ± 0.2 | 23 ± 0.85 | 49.6 ± 6.99 | 23.66 ± 0.21 | –
4 | COc1cc(-n2c(=S)[nH]c3ccccc3c2=O)c(Cl)cc1Cl [Mdivi-1] | – | – | – | – | – | effect on TRIP-induced CHOP activation (CHOP; 50 μM Mdivi-1 co-treatment with TRIP): accelerated TRIP-induced CHOP activation; effect on thapsigargin-induced CHOP activation (CHOP; Mdivi-1 co-treatment with thapsigargin): did not boost thapsigargin-induced CHOP activation; mitochondrial fission (HeLa cells [2]): could be blocked by Mdivi-1 treatment
5 | N.N.[Cl][Pt][Cl] [Cisplatin, cisplatin] | 9.2 ± 0.38 | 7.89 ± 0.26 | 8.35 ± 0.37 | 8.33 ± 0.3 | 10.2 ± 0.23 | metal accumulation in DNA and proteins (Pt for cisplatin, Re for TRIP) (HeLa cells [3]): induced the DNA platination in a time-dependent manner
